The values that follow come from patent publication US4243674A, “9-Hydroxydibenzo[b,d]pyrans and intermediates therefore” (priority 1978, dated 1981).

For test [1], the system named is phenylbenzoquinone-induced writhing. In words: Suppression of phenylbenzoquinone irritant-induced writhing (PBQ). Type of test: in vivo, Carworth Farms CF-1 mice. The following applies: Mus musculus, mice, read-out: ANALGESIC ACTIVITY ED50, PBQ. The protocol: Test Using Chemical Nociceptive Stimuli
Suppression of Phenylbenzoquinone Irritant-Induced Writhing
Groups of 5 Carworth Farms CF-1 mice are pretreated subcutaneously or orally with saline, morphine, codeine or the test compound. Twenty minutes (if treated subcutaneously) or fifty minutes (if treated orally) later, each group is treated with intraperitoneal injection of phenylbenzoquinone, an irritant known to produce abdominal contractions. The mice are observed for 5 minutes for the presence or absence of writhing starting 5 minutes after the injection of the irritant. MPE50 's of the drug pretreatments in blocking writhing are ascertained.
(§1) Results of the above tests are recorded as percent maximum possible effect (% MPE). The % MPE of each group is statistically compared to the % MPE of the standard and the predrug control values. The % MPE is calculated as follows: [formula]
(§2) By means of the above procedures, the analgesic activity of several compounds of this invention and of certain prior art compounds are determined. The data are reported in terms of maximum possible effect.
(§3) PBQ=phenylbenzoquinone-induced writhing; TF=tail flick; HP=hot plate; RTC=rat tail clamp; FJ=flinch jump; and TI=tail immersion assays.
A general note: An intraperitoneal irritant provokes the stretching counted in writhing tests.

For test [2], the system named is tail flick. In words: Mouse tail flick analgesic testing (TF). Type of test: in vivo, mice. The following applies: Mus musculus; tail flick, mice.
Excerpt: (§4) Tests Using Thermal Nociceptive Stimuli
(b) Mouse Tail Flick Analgesic Testing
Tail flick testing in mice is modified after D'Amour and Smith, J. Pharmacol. Exp. Ther., 72, 74-79 (1941), using controlled high intensity heat applied to the tail. Each mouse is placed in a snug-fitting metal cylinder, with the tail protruding through one end. This cylinder is arranged so that the tail lies flat over a concealed heat lamp. At the onset of testing, an aluminum flag over the lamp is drawn back allowing the light beam to pass through the slit and focus onto the end of the tail. A timer is simultaneously activated. The latency of a sudden flick of the tail is ascertained. Untreated mice usually react within 3-4 seconds after exposure to the lamp. The end point for protection is 10 seconds. Each mouse is tested at 0.5 and 2 hours after treatment with morphine and the test compound. Morphine has an MPE50 of 3.2-5.6 mg./kg. (s.c.).
as §1, §2, §3

Test [3] concerns hot plate. Nature of the test: Mouse hot plate analgesic testing (HP). The following applies: Mus musculus; hot plate, mice. Type of test: in vivo, mice. The procedure: as §4
(a) Mouse Hot Plate Analgesic Testing
The method used is modified after Woolfe and MacDonald, J. Pharmacol. Exp. Ther., 80, 300-307 (1944). A controlled heat stimulus is applied to the feet of mice on a 1/8" thick aluminum plate. A 250 watt reflector infrared heat lamp is placed under the bottom of the aluminum plate. A thermal regulator, connected to thermistors on the plate surface, programs the heat lamp to maintain a constant temperature of 57° C. Each mouse is dropped into a glass cylinder (61/2" diameter) resting on the hot plate, and timing is begun when the animal's feet tough the plate. The mouse is observed at 0.5 and 2 hours after treatment when the test compound for the first "flicking"movements of one or both hind feet, or until 10 seconds elapse without such movements. Morphine has an MPE50 =4-5.6 mg./kg. (s.c.).
as §1, §2, §3

Test [4] has as its system rat tail clamp. Nature of the test: Haffner tail pinch procedure / rat tail clamp (RTC). Type of test: in vivo, male albino rats, Charles River (Sprague-Dawley) CD strain. The following applies: 1 hour, read-out: ANALGESIC ACTIVITY ED50, RTC 1 hour. The protocol: Tests Using Pressure Nociceptive Stimuli
Effect on the Haffner Tail Pinch Procedure
A modification of the procedure of Haffner, Experimentelle Prufung Schmerzstillender. Mittel Deutch Med. Wschr., 55, 731-732 (1929) is used to ascertain the effects of the test compound on aggressive attacking responses elicited by a stimulus pinching the tail. Male albino rats (50-60 b.) of the Charles River (Sprague-Dawley) CD strain are used. Prior to drug treatment, and again at 0.5, 1, 2 and 3 hours after treatment, a Johns Hopkins 2.5-inch "bulldog" clamp is clamped onto the root of the rat's tail. The endpoint at each trial is clear attacking and biting behavior directed toward the offending stimulus, with the latency for attack recorded in seconds. The clamp is removed in 30 seconds if attacking has not yet occurred, and the latency of response is recorded as 30 seconds. Morphine is active at 17.8 mg./kg. (i.p.).
as §1, §2, §3

Test [5] concerns flinch jump. In words: Flinch-jump test (FJ). Type of test: in vivo, male albino rats, Charles River (Sprague-Dawley) CD strain. The following applies: Rattus norvegicus, rats, 2 hours, read-out: ANALGESIC ACTIVITY ED50, FJ 2 hours.
Excerpt: Tests Using Electrical Nociceptive Stimuli
A modification of the flinch-jump procedure of Tenen, Psychopharmacologia, 12, 278-285 (1968) is used for determining pain thresholds. Male albino rats (175-200 g.) of the Charles River (Sprague-Dawley) CD strain are used. Prior to receiving the drug, the feet of each rat are dipped into a 20% glycerol/saline solution. The animals are then placed in a chamber and presented with a series of 1-second shocks to the feet which are delivered in increasing intensity at 30-second intervals. These intensities are 0.26, 0.39, 0.52, 0.78, 1.05, 1.31, 1.58, 1.86, 2.13, 2.42, 2.72 and 3.04 mA. Each animal's behavior is rated for the presence of (a) flinch, (b) squeak and (c) jump or rapid forward movement at shock onset. Single upward series of shock intensities are presented to each rat just prior to, and at 0.5, 2, 4 and 24 hours subsequent to drug treatment.
as §1, §2, §3

Test [6] concerns tail immersion. In words: Tail immersion procedure (TI). Type of test: in vivo, male albino mice, Charles River CD-1 strain. The following applies: Mus musculus, 0.5 h; tail immersion, mice, 1/2 hour; read-out: ANALGESIC ACTIVITY ED50, TI 1/2 hour. The procedure:
(c) Tail Immersion Procedure
The method is a modification of the receptacle procedure developed by Benbasset, et al., Arch. int. Pharmacodyn., 122, 434 (1959). Male albino mice (19-21 g.) of the Charles River CD-1 strain are weighed and marked for identification. Five animals are normally used in each drug treatment group with each animal serving as its own control. For general screening purposes, new test agents are first administered at a dose of 56 mg./kg. intraperitoneally or subcutaneously, delivered in a volume of 10 ml./kg. Preceding drug treatment and at 0.5 and 2 hours post drug, each animal is placed in the cylinder. Each cylinder is provided with holes to allow for adequate ventilation and is closed by a round nylon plug through which the animal's tail protrudes. The cylinder is held in an upright position and the tail is completely immersed in the constant temperature waterbath (56° C.). The endpoint for each trial is an energetic jerk or twitch of the tail coupled with a motor response. In some cases, the endpoint may be less vigorous post drug. To prevent undue tissue damage, the trial is terminated and the tail removed from the waterbath within 10 seconds. The response latency is recorded in seconds to the nearest 0.5 second. A vehicle control and a standard of known potency are tested concurrently with screening candidates. If the activity of a test agent has not returned to baseline values at the 2-hour testing point, response latencies are determined at 4 and 6 hours. A final measurement is made at 24 hours if activity is still observed at the end of the test day.
as §1, §2, §3

The test system of test [7] is central nervous system activity. Particulars: Loev et al. 1973; cited from earlier work.
Test [8] deals with hashish activity. Particulars: Bergel et al. 1943, cited from earlier work.

As to `CC(CCCc1ccccc1)Oc1cc(O)c2c(c1)OC(C)(C)[C@@H]1CC[C@@H](O)C[C@@H]21` (relative stereo) [OCH(CH3)(CH2)3C6 H5, dl-6aβ,7,8,9,10,10aα-hexahydro-1-hydroxy-6,6-dimethyl-3-(1-methyl-4-phenylbutoxy)-6H-dibenzo[b,d]pyran-9β-ol], the ED50 in test [1] was 0.11 mg/kg; in test [2] it was 0.33 mg/kg; in test [3], 0.76 mg/kg; in test [4] it was 1.9 mg/kg; in test [5] it was 0.44 mg/kg; in test [6], 0.4 mg/kg.

Consider `CCCCCC(C)Oc1cc(O)c2c(c1)OC(C)(C)[C@@H]1CC[C@@H](O)C[C@@H]21` (relative stereo) [OCH(CH3)C5 H11, dl-6aβ,7,8,9,10,10aα-Hexahydro-1-Hydroxy-6,6-Dimethyl-3-(2-Heptyloxy)-6H-Dibenzo[b,d]pyran-9β-ol], for which the ED50 is 0.16 mg/kg in test [1]; 0.46 mg/kg in test [2]; 1.2 mg/kg in test [3]; 0.34 mg/kg in test [4]; 0.3 mg/kg in test [5]; 0.7 mg/kg in test [6].

As to `CCCCCC(C)Oc1cc(O)c2c(c1)OC(C)(C)C1=C2CC(C)CC1` (stereo not shown) [--OCH(CH3)C5 H11], in test [7], the “less active in central nervous system activity than the corresponding compound with the alkyl side chain directly attached” value is recorded as 50% and the “times as active as the compound in which oxygen is replaced by methylene” value is on record as 5 times.

As for `CCCCOc1cc(O)c2c(c1)OC(C)(C)C1=C2CC(C)CC1` (stereo not shown) [butoxy], the “biological activity on replacing the 3-pentyl group by alkoxy” value (“biological activity” below) in test [8] is recorded as “biological inactivity”.

As for `CCCCCCOc1cc(O)c2c(c1)OC(C)(C)C1=C2CC(C)CC1` (stereo not shown) [hexoxy], the “biological activity” value in test [8] is given as “biological inactivity”. In addition, the hashish activity result in test [8] (at 10 to 20 mg./kg.) is recorded as “feeble hashish activity”.

Regarding `CCCCCCCCOc1cc(O)c2c(c1)OC(C)(C)C1=C2CC(C)CC1` (stereo not shown) [octoxy], in test [8], the “biological activity” value is “biological inactivity”.

Regarding `CCCCCOc1cc(O)c2c(c1)OC(C)(C)C1=C2CC(C)CC1` (stereo not shown) [pentoxy], the “biological activity” value in test [8] is on record as “biological inactivity”.
